Article doi:10.1101/2021.11.14.468520v1, “Exploring the kinetic selectivity of antipsychotics for dopamine D2 and 5-HT2A receptors: implications for the prevalence of EPS and receptor occupancy” (biorxiv, 2021)

Columns and labels:
[1] = target: T1, human 5-HT2A receptor (5-HT2AR) (Homo sapiens, UniProt P28223); test: TR-FRET saturation binding; conditions: labelled compound; CHO membranes; […] GppNHp, pH […]; equilibrium, […] min
T1 construct: gene HTR2A; SNAP-tagged (SNAP-Lumi4-Tb labelled) receptor transiently expressed in CHO-K1 cells; membranes; plasmid from CisBio
T1 sequence (P28223 whole entry): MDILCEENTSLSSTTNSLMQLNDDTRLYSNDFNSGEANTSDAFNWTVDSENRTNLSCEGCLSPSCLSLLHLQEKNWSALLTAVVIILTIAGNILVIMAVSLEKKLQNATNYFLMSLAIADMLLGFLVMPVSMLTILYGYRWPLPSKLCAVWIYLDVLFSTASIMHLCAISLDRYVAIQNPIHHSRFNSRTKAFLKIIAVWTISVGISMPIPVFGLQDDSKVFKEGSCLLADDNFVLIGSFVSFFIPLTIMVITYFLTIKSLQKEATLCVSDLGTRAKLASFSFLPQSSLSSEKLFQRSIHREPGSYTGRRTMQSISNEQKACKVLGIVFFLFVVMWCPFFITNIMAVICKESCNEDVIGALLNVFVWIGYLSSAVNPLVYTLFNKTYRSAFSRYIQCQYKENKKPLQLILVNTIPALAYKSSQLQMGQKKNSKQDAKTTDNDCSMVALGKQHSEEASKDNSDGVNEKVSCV

[2] = target: T1, human 5-HT2A receptor (5-HT2AR); test: biochemical; design: species or system CHO; conditions: read-out: koff (min^-1)
[3] = target: T1, human 5-HT2A receptor (5-HT2AR); test: TR-FRET equilibrium competition binding
Source text: TR-FRET equilibrium competition binding on human 5-HT2A receptor (5-HT2AR)

Compound	Kd [1]	koff [2]	Ki [3]
4F4PP oxalate-red	3.98 ± 0.65 nM	–	–
CN1CC2c3ccccc3Oc3ccc(Cl)cc3C2C1 (centres unmarked) [Asenapine]	–	0.7 min⁻¹	0.661 nM
Cc1nc2n(c(=O)c1CCN1CCC(c3noc4cc(F)ccc34)CC1)CCCC2O (centres unmarked) [Paliperidone]	–	0.23 min⁻¹	1.02 nM
